Measurements published in the supplement of paper PMC10307832.

Assays:
Experiment in all cases: relative viability (nuclei count vs DMSO), 5 days (fraction); higher = more cells survive
YM155 + Navitoclax = compound: COCC[n+]1c2c(n(Cc3cnccn3)c1C)C(=O)c1ccccc1C2=O [YM155] + CC1(C)CCC(c2ccc(Cl)cc2)=C(CN2CCN(c3ccc(C(=O)NS(=O)(=O)c4ccc(N[C@H](CCN5CCOCC5)CSc5ccccc5)c(S(=O)(=O)C(F)(F)F)c4)cc3)CC2)C1 [Navitoclax] (partner 0.5 µM)
Outline: (§1)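 A single step with final 0.05% Triton X-100, 1% formaldehyde and 1 ug/ml Hoechst fixed the cells and stained nuclei 5 days after treatment. Lung cancer cell lines in 1536-well plates had been treated by pin tool the day after seeding with one drug alone or a fixed anchor-drug dose plus five library-drug doses (not always all listed) in √10 steps, and nuclei were counted on 4× images. Relative viability is the ratio of nuclei in treated wells to nuclei in vehicle wells, taken as the median of duplicate plates.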

Quizartinib + Trametinib = compound: CC(C)(C)c1cc(NC(=O)Nc2ccc(-c3cn4c(n3)sc3cc(OCCN5CCOCC5)ccc34)cc2)no1 [Quizartinib] + CC(=O)Nc1cccc(-n2c(=O)n(C3CC3)c(=O)c3c(Nc4ccc(I)cc4F)n(C)c(=O)c(C)c32)c1 [Trametinib] (partner 0.02 µM)
Outline: as §1

YM155 = compound: COCC[n+]1c2c(n(Cc3cnccn3)c1C)C(=O)c1ccccc1C2=O [YM155]
Outline: (§2)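 Cells of lung cancer lines were placed in 1536-well plates and kept overnight at 37 °C. Pinning then delivered five library-drug doses (not always all listed), spaced by √10, onto plates anchored with vehicle, and the cells were left 5 days without changing medium. One step fixed, permeabilised and stained them with Hoechst, and MetaXpress counted nuclei in 4× images. Viability, as a median over plates, is treated-well nuclei divided by vehicle-well nuclei, with acceptance only at control CV below 25% and at least one doubling.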

Quizartinib = compound: CC(C)(C)c1cc(NC(=O)Nc2ccc(-c3cn4c(n3)sc3cc(OCCN5CCOCC5)ccc34)cc2)no1 [Quizartinib]
Outline: as §2

Row | Cell Line | relative viability (YM155 + Navitoclax; first compound 0.002 µM) | relative viability (YM155 + Navitoclax; first compound 0.006325 µM) | relative viability (YM155 + Navitoclax; first compound 0.02 µM) | relative viability (YM155 + Navitoclax; first compound 0.06325 µM) | relative viability (Quizartinib + Trametinib; first compound 0.001 µM) | relative viability (Quizartinib + Trametinib; first compound 0.003162 µM) | relative viability (Quizartinib + Trametinib; first compound 0.01 µM) | relative viability (Quizartinib + Trametinib; first compound 0.1 µM) | relative viability (YM155; 0.002 µM) | relative viability (YM155; 0.006325 µM) | relative viability (YM155; 0.02 µM) | relative viability (YM155; 0.06325 µM) | relative viability (Quizartinib; 0.001 µM) | relative viability (Quizartinib; 0.003162 µM) | relative viability (Quizartinib; 0.01 µM) | relative viability (Quizartinib; 0.03162 µM) | relative viability (Quizartinib; 0.1 µM) | relative viability (Quizartinib + Trametinib; first compound 0.03162 µM)
1 | COR-L 105 | 0.672 | 0.892 | 0.783 | 0.501 | 0.449 | 0.445 | 0.507 | 0.516 | 0.914 | 0.804 | 0.912 | 0.692 | 0.864 | 0.961 | 0.906 | 0.87 | 1.05 | 
2 | ChaGo-K-1 | 1.14 | 0.928 | 0.785 | 0.93 |  | 0.881 | 0.889 | 0.865 | 0.906 | 1 | 0.987 | 0.918 | 0.773 | 1.05 | 1.01 | 0.851 | 1.05 | 0.9
3 | EKVX | 0.854 | 0.989 | 1.01 | 0.704 |  | 0.327 | 0.331 | 0.284 | 0.927 | 1.07 | 1.01 | 0.857 | 0.704 | 1 | 0.99 | 0.935 | 1.05 | 0.437
4 | EMC-BAC-2 | 1.12 | 1.24 | 1.09 | 1.13 | 0.811 | 0.899 | 0.865 | 0.857 | 0.883 | 0.971 | 1.09 | 0.808 | 0.919 | 0.976 | 0.927 |  | 1.05 | 
5 | EPLC-272H | 1.14 | 1.11 | 1.13 | 1.18 | 0.291 | 0.254 | 0.241 | 0.304 | 0.883 | 0.989 | 1.01 | 1.15 | 0.878 | 1.08 | 1.03 | 1.04 | 0.761 | 0.283
6 | H3255 | 0.491 | 0.523 | 0.487 | 0.525 |  | 0.561 | 0.653 | 0.663 | 0.953 | 0.998 | 1.01 | 0.929 | 0.822 | 0.964 | 0.969 | 1.03 | 1.01 | 0.637
7 | HARA | 1.11 | 1.14 | 1.13 | 1.14 | 0.508 | 0.715 | 0.626 | 0.459 | 0.823 | 1.15 | 1.05 | 1.09 | 0.946 | 0.924 | 1.05 | 0.954 | 0.941 | 0.555
8 | HCC-15 | 0.66 | 0.673 | 0.72 | 0.706 | 0.403 | 0.387 | 0.409 | 0.364 | 0.928 | 1.11 | 0.975 | 1.02 | 0.842 | 1 | 0.978 | 0.957 | 0.963 | 0.326
9 | HCC-44 | 0.983 | 1.04 | 0.988 | 0.914 | 0.892 | 1.05 | 1.03 | 1.03 | 0.986 | 1.03 | 0.988 | 0.978 | 0.963 | 0.981 | 0.888 | 1 | 0.858 | 1.05
10 | HCC-78 | 0.79 | 0.717 | 0.767 | 0.942 | 0.727 | 0.662 | 0.848 | 0.913 | 0.898 | 1.08 | 1.08 | 1.05 | 0.967 | 1.03 | 0.911 | 0.865 | 0.988 | 0.593
11 | HCC-366 | 1.08 | 1.04 | 0.989 | 0.843 | 0.314 | 0.383 | 0.294 | 0.346 | 1.05 | 0.993 | 1.01 | 1.06 | 0.978 | 1.04 | 1.06 | 1.04 | 1.02 | 0.326
12 | HCC-827 | 1.03 | 1.11 | 1.01 | 0.992 | 0.535 | 0.531 |  | 0.572 | 0.986 | 1.05 | 1.03 | 1.11 | 0.943 | 1.04 | 0.978 | 1.03 | 1.09 | 0.509
13 | HOP-62 | 0.97 | 0.969 | 0.979 | 1.11 | 0.33 | 0.367 | 0.399 | 0.304 | 0.971 | 0.93 | 1.06 | 0.93 | 0.843 | 0.954 | 1.01 | 1.1 | 0.979 | 0.383
14 | LC-2-ad | 0.414 | 0.479 | 0.456 | 0.509 | 0.809 | 0.92 | 0.899 | 0.624 | 0.914 | 0.978 | 0.972 | 0.913 | 0.827 | 1.02 | 0.972 | 0.863 | 0.892 | 0.883
15 | LCLC-97TM1 | 0.319 | 0.394 | 0.391 | 0.376 | 0.158 | 0.186 | 0.191 | 0.184 | 0.791 | 0.955 | 1.04 | 0.957 | 0.771 | 0.968 | 0.918 | 0.964 | 1 | 0.216
16 | LK-2 | 0.776 | 0.855 | 0.85 | 1.09 | 0.796 | 0.671 | 0.801 | 0.789 | 0.893 | 1.06 | 1.03 | 1.16 | 0.943 | 0.891 | 1.02 | 0.944 | 1.15 | 0.765
17 | LOU-NH91 | 0.748 | 0.677 | 0.725 | 0.716 | 0.425 | 0.756 | 0.817 | 0.826 | 0.958 | 1.01 | 1.02 | 1.07 | 0.954 | 1.12 | 0.965 | 0.857 | 1.14 | 0.786
18 | LU99A | 0.753 | 0.729 | 0.756 | 0.677 | 0.485 | 0.503 | 0.554 | 0.518 | 1.01 | 1.01 | 0.984 | 0.938 | 0.889 | 0.906 | 1.05 | 1.09 | 0.842 | 0.583
19 | LXF-289 | 0.94 | 0.949 | 0.957 | 0.87 | 0.613 | 0.692 | 0.709 | 0.622 | 0.998 | 1.01 | 1.04 | 0.973 | 0.924 | 0.976 | 1.05 | 0.957 | 0.998 | 0.702
20 | NCI-H23 | 0.727 | 0.879 | 0.967 | 0.269 | 0.353 | 0.346 | 0.456 | 0.312 | 0.734 | 0.925 | 0.957 | 0.529 | 0.742 | 1.01 | 0.918 | 0.896 | 1.05 | 0.43
21 | NCI-H322M | 1.24 | 1.23 | 1.28 | 1.47 | 0.482 | 0.536 | 0.617 | 0.536 | 0.92 | 0.982 | 1 | 1.03 | 0.952 | 1.03 | 0.916 | 0.965 | 0.978 | 0.504
22 | NCI-H441 | 0.56 | 0.633 | 0.554 | 0.403 | 0.35 | 0.563 | 0.45 | 0.456 | 0.9 | 1.15 | 0.795 | 0.759 | 0.919 | 0.946 | 0.945 | 0.764 | 1.14 | 0.368
23 | NCI-H460 | 1.17 | 1.23 | 1.27 | 0.903 |  | 0.152 | 0.104 | 0.0587 | 0.984 | 1.02 | 0.997 | 0.988 | 0.811 | 0.957 | 1.02 | 0.78 | 0.942 | 
24 | NCI-H520 | 1.15 | 0.991 | 1.07 | 1.03 |  | 0.465 | 0.673 | 0.486 | 1.01 | 1.03 | 1.05 | 1.17 | 0.73 | 0.867 | 0.96 | 0.903 | 0.921 | 0.637
25 | NCI-H596 |  | 0.972 | 1.09 | 1.03 | 0.794 | 0.695 | 0.805 | 0.8 | 0.962 | 0.989 | 1.15 | 1.06 | 1.05 | 1.03 | 0.99 | 0.875 | 1.04 | 0.77
26 | NCI-H647 | 0.947 | 1.17 | 0.855 | 0.442 | 0.43 | 0.387 | 0.508 | 0.396 | 0.857 | 0.89 | 0.925 | 0.538 | 0.794 | 0.946 | 1.09 | 0.855 | 1.09 | 0.434
27 | NCI-H727 | 0.479 | 0.382 | 0.39 | 0.48 | 0.424 | 0.355 | 0.366 | 0.429 | 0.932 | 0.933 | 0.967 | 1.04 | 0.7 | 0.899 | 0.883 | 0.83 | 0.96 | 0.397
28 | NCI-H838 | 1.04 | 1.21 | 1.22 | 0.791 | 0.516 | 0.515 | 0.466 | 0.367 | 0.912 | 0.999 | 1.01 | 0.768 | 0.894 | 0.962 | 0.882 | 0.936 | 0.843 | 0.514
29 | NCI-H1355 | 0.947 | 1.08 | 1.08 | 1.04 | 0.411 | 0.43 | 0.444 | 0.357 | 0.927 | 1.01 | 1.01 | 1.08 | 0.924 | 0.966 | 0.876 | 1 | 1.02 | 0.423
30 | NCI-H1395 | 1.4 | 0.799 | 1.53 | 1.55 | 0.842 | 0.924 | 0.979 | 1.13 | 0.898 | 0.946 | 1.12 | 0.985 | 0.93 | 0.949 | 0.841 | 0.811 | 1.16 | 1.03
